Test results: patent US8501805B2, “Substituted alpha-L-bicyclic nucleosides” (Isis Pharmaceuticals, Inc., priority 2008, dated 2013)
[αh] = substituted alpha-L-bicyclic nucleoside, publication subscript αh; [αj] = substituted alpha-L-bicyclic nucleoside, publication subscript αj; [αl] = substituted alpha-L-bicyclic nucleoside, publication subscript αl; [αm] = substituted alpha-L-bicyclic nucleoside, publication subscript αm; [αg] = code of the source, not defined here; d = 2'-deoxy (DNA)

Assay: 12mer Tm study
Assay type: binding
Details: for Tm (° C.): all linkages phosphodiester; for ΔTm/mod (° C.): change in Tm per modification
Excerpt: All internucleoside linkages are phosphodiester and all nucleosides not followed by a subscript are 2′-deoxyribonucleosides. The nucleosides followed by a subscript are defined below.

## 07/438704: 12mer GCGTTUTTTGCT, all 2′-deoxyribonucleosides, all linkages phosphodiester (DNA, all phosphodiester, methylation of C not given here) [reference compound]
  Tm (° C.): 46.7 °C
  ΔTm/mod (° C.): +0.0 °C

## 07/438711: 12mer GCGTTUαlTTTGCT, all linkages phosphodiester (GCGTTUTTTGCT; sugars from the 5' end d5 [αl]1 d6, all phosphodiester, methylation of C not given here) [reference compound]
  Tm (° C.): 50.2 °C
  ΔTm/mod (° C.): +4.6 °C

## 07/449244: 12mer GCGTTUαjTTTGCT, all linkages phosphodiester (GCGTTUTTTGCT; sugars from the 5' end d5 [αj]1 d6, all phosphodiester, methylation of C not given here)
  Tm (° C.): 46.7 °C
  ΔTm/mod (° C.): +1.1 °C

## 07/449245: 12mer GCGTTUαjTαjTTGCT, all linkages phosphodiester (GCGTTUTTTGCT; sugars from the 5' end d5 [αj]2 d5, all phosphodiester, methylation of C not given here)
  Tm (° C.): 47.1 °C
  ΔTm/mod (° C.): +1.0 °C

## 07/449246: 12mer GCGTTUαhTTTGCT, all linkages phosphodiester (GCGTTUTTTGCT; sugars from the 5' end d5 [αh]1 d6, all phosphodiester, methylation of C not given here)
  Tm (° C.): 49.0 °C
  ΔTm/mod (° C.): +3.4 °C

## 07/449247: 12mer GCGTTUαhTαhTTGCT, all linkages phosphodiester (GCGTTUTTTGCT; sugars from the 5' end d5 [αh]2 d5, all phosphodiester, methylation of C not given here)
  Tm (° C.): 53.7 °C
  ΔTm/mod (° C.): +4.1 °C

## 07/454306: 12mer GCGTTUαlTαlTTGCT, all linkages phosphodiester (GCGTTUTTTGCT; sugars from the 5' end d5 [αl]2 d5, all phosphodiester, methylation of C not given here) [reference compound]
  Tm (° C.): 45.6 °C
  ΔTm/mod (° C.): +4.6 °C

## 07/454307: 12mer GCGTTUαmTTTGCT, all linkages phosphodiester (GCGTTUTTTGCT; sugars from the 5' end d5 [αm]1 d6, all phosphodiester, methylation of C not given here)
  Tm (° C.): 51.3 °C
  ΔTm/mod (° C.): +5.5 °C

## 07/454308: 12mer GCGTTUαmTαmTTGCT, all linkages phosphodiester (GCGTTUTTTGCT; sugars from the 5' end d5 [αm]2 d5, all phosphodiester, methylation of C not given here)
  Tm (° C.): 55.2 °C
  ΔTm/mod (° C.): +4.8 °C

## 07/454309: 12mer GCGTTUαgTTTGCT, all linkages phosphodiester (GCGTTUTTTGCT; sugars from the 5' end d5 [αg]1 d6, all phosphodiester, methylation of C not given here)
  Tm (° C.): 49.7 °C
  ΔTm/mod (° C.): +4.2 °C

## 07/454310: 12mer GCGTTUαgTαgTTGCT, all linkages phosphodiester (GCGTTUTTTGCT; sugars from the 5' end d5 [αg]2 d5, all phosphodiester, methylation of C not given here)
  Tm (° C.): 53.6 °C
  ΔTm/mod (° C.): +4.2 °C
